# Test results published in patent publication US20140349970A1 (ABBVIE INC., priority 2009, published 2014).
# pIC50: −log10 of the molar value. Structures can show the parent of a compound that is named as a salt. Where two headings read alike, the source gives them in different places.
# Molecular target: T1, Syk catalytic domain (aa 356-635 with a C-terminal His-tag) (Homo sapiens, UniProt P43405)
# T1 construct: His-tag (C); made in house
# Experiment: In vitro Syk kinase activity measured by trFRET, Syk catalytic domain
# Format: biochemical
# Summary of the method: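 Kinase reaction: 0.14 nM His-tagged catalytic domain, 0.2 μM biotin-TYR1 peptide, 0.001 mM ATP in 50 mM MOPSO pH 6.5 with MgCl2, MnCl2, DTT, BSA, vanadate, ~60 min at rt, then EDTA quench. Phosphoproduct detected by trFRET (Eu anti-pTyr antibody/streptavidin-APC, 665 nm emission); IC50 from signal in linear range.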
# [1] = Syk catalytic domain (aa 356-635), trFRET, 0.001 mM ATP
Structure (SMILES),pIC50,pIC50 [1]
Cc1nc(-c2ccc(OCCN3CCOCC3)cc2)c2cnc3[nH]ccc3n12 [AC.1.14],> 7.00,–
"Cc1nc(-c2ccc(C(C)(C)O)cc2)c2cnc3[nH]ccc3n12 [N.1.50, 2-(4-(1-methyl-6H-imidazo[1,5-a]pyrrolo[2,3-e]pyrazin-3-yl)phenyl)propan-2-ol]",–,> 7.00
COCCc1nc(-c2ccc(OC)cc2)c2cnc3[nH]ccc3n12 [N.1.88],–,6.00 to 7.00
COc1ccc2c(c1)c(-c1cc3c(ncc4cnc(N5CCCC5)n43)[nH]1)cn2C [M.1.17],–,> 7.00
Cc1nc(-c2ccc(C(C)(C)O)s2)c2cnc3[nH]ccc3n12 [S.1.11],> 7.00,–
COc1ccc(-c2ncn3c2cnc2[nH]ccc23)cc1C [AC.4.10],> 7.00,–
Cc1nc(-c2ccc(C(C)(C)O)cc2)c2cnc3[nH]cc(C#N)c3n12 [M.2.4],–,> 7.00
COc1ccc(-c2nc([C@H]3CCC[C@@H](NC(C)=O)C3)n3c2cnc2[nH]ccc23)cc1 [J.2.1.7],–,6.00 to 7.00
Cc1nc(-c2ccc(C(C)(C)CO)cc2)c2cnc3[nH]ccc3n12 [AC.1.7],> 7.00,–
CC(C)(O)c1ccc(-c2nc(N3CCC(CN)C3)n3c2cnc2[nH]ccc23)cc1 (stereo not shown) [N.1.66],–,> 7.00
CC(=O)N1CC=C(c2ncn3c2cnc2[nH]ccc23)CC1 [J.2.1.5],–,5.00 to 6.00
CC(=O)NC(C)(C)c1ccc(-c2nc(C3CCCCC3)n3c2cnc2[nH]ccc23)cc1 [J.2.1.4],–,> 7.00
CC(C)(O)c1ccc(-c2nc(C3CC3)n3c2cnc2[nH]ccc23)cc1 [AC.5.8],> 7.00,–
CCc1c(-c2ccc(C(C)(C)O)cc2)[nH]c2ncc3nncn3c12 [S.1.9],6.00 to 7.00,–
c1cnc(-c2nc(C3CCCCC3)n3c2cnc2[nH]ccc23)cn1 [AC.3.16],5.00 to 6.00,–
COc1ccc(-c2nc(C)n3c2cnc2[nH]ccc23)cc1C(=O)NCCN(C)C [J.1.7.2],–,6.00 to 7.00
COc1ccc(-c2nc(CNC3CC3)n3c2cnc2[nH]ccc23)cc1 [N.1.114],–,5.00 to 6.00
Cc1nc(-c2cccc3nccnc23)c2cnc3[nH]ccc3n12 [AC.1.5],< 5.00,–
"COc1ccc2c(c1)c(-c1cc3c(ncc4cnc([C@@H]5CC[C@H](N)C5)n43)[nH]1)cn2C (relative stereo) [T.1.1, cis-3-(7-(5-Methoxy-1-methyl-1H-indol-3-yl)-6H-imidazo[1,5-a]pyrrolo[2,3-e]pyrazin-1-yl)cyclopentanamine diacetate]",–,> 7.00
CC(=O)N[C@@H]1C[C@@H](c2nc(-c3ccc(C(C)(C)O)cc3)c3cnc4[nH]ccc4n23)N(S(=O)(=O)C2CC2)C1 (racemic) [N.1.65],–,5.00 to 6.00
COc1ccc(-c2nc(CN3CCNC(CO)C3)n3c2cnc2[nH]ccc23)cc1 (stereo not shown) [T.3.1.6],6.00 to 7.00,–
Cc1nc(-c2ccc(CO)nc2)c2cnc3[nH]ccc3n12 [AC.1.3],6.00 to 7.00,–
CCc1c(-c2ccc(C(C)(C)O)cc2)[nH]c2nc(C)c3cncn3c12 [S.1.7],6.00 to 7.00,–

Structure (SMILES),pIC50,pIC50 [1]
Cc1nc(-c2ccc(C3(O)COC3)cc2)c2cnc3[nH]ccc3n12 [AC.1.33],6.00 to 7.00,–
CN(C)S(=O)(=O)c1ccc(-c2nc(C3CCCCC3)n3c2cnc2[nH]ccc23)cc1 [AC.3.29],6.00 to 7.00,–
CC(C)(O)c1ccc(-c2nc(C3CCCNC3)n3c2cnc2[nH]ccc23)cc1 (stereo not shown) [D.2.1],–,> 7.00
COc1ccc2c(c1)c(-c1cc3c(ncc4cnc([C@@H]5CC[C@H](NS(=O)(=O)C6CC6)C5)n43)[nH]1)cn2C [K.1.1],–,> 7.00
CC(C)(O)c1ccc(-c2ncn3c2cnc2[nH]cc(C4=CCNCC4)c23)cc1 [AC.5.4],5.00 to 6.00,–
CC(=O)c1cc(-c2ncn3c2cnc2[nH]ccc23)ccn1 [AC.4.4],6.00 to 7.00,–
Cc1nc(-c2ccc(S(=O)(=O)N3CCN(C)CC3)cc2)c2cnc3[nH]ccc3n12 [AC.1.12],5.00 to 6.00,–
CC(C)(O)c1ccc(-c2ncn3c2cnc2[nH]ccc23)cc1 [N.1.53],–,> 7.00
CC(C)(O)c1ccc(-c2nc(CN3CCNCC3)n3c2cnc2[nH]ccc23)cc1 [P.3.1.7],6.00 to 7.00,–
Cc1nc(-c2ccc(CN3CCOCC3)cc2)c2cnc3[nH]ccc3n12 [AH.1.1],6.00 to 7.00,–
Cc1cc(-c2nc(C)n3c2cnc2[nH]ccc23)ccc1N1CCN(C)CC1 [AC.1.30],> 7.00,–
CC(C)(O)c1ccc(-c2nc(CCCN)n3c2cnc2[nH]ccc23)cc1 [AC.5.5],6.00 to 7.00,–
CC(C)(O)c1ccc(-c2nc(-c3cccnc3)n3c2cnc2[nH]ccc23)cc1 [AC.6.1],–,> 7.00
CC(C)(O)c1ccc(-c2nc(C(F)(F)F)n3c2cnc2[nH]ccc23)cc1 [N.1.58],–,6.00 to 7.00
COc1ccc2c(c1)c(-c1nc(C)n3c1cnc1[nH]ccc13)cn2C [N.1.55],–,6.00 to 7.00
COc1ccc2c(c1)c(-c1cc3c(ncc4cnc(CCC#N)n43)[nH]1)cn2C [M.1.13],–,> 7.00
COc1ccc(-c2nc(C3CC3)n3c2cnc2[nH]ccc23)cc1 [N.1.87],–,> 7.00
"Cc1nc(-c2ccc(C3(O)CCNCC3)cc2)c2cnc3[nH]ccc3n12 [P.3.1.5, 4-(4-(1-Methyl-6H-imidazo[1,5-a]pyrrolo[2,3-e]pyrazin-3-yl)phenyl)piperidin-4-ol hydrochloride]",> 7.00,–
Cc1cc(-c2ncn3c2cnc2[nH]ccc23)ccn1 [AC.4.5],6.00 to 7.00,–
COc1ccc(-c2nc(C(C)C)n3c2cnc2[nH]ccc23)cc1 [N.1.91],–,6.00 to 7.00
COc1ccc(-c2nc(C)n3c2cnc2[nH]ccc23)cc1OC [AC.1.41],> 7.00,–
COc1ccc(-c2nc(CNC3CCCCC3O)n3c2cnc2[nH]ccc23)cc1 (stereo not shown) [N.1.93],–,5.00 to 6.00

# Second part, the compound after the results:
pIC50,pIC50 [1],Structure (SMILES)
5.00 to 6.00,–,Cc1nc(-c2cccnc2)c2cnc3[nH]ccc3n12 [AC.1.22]
–,> 7.00,CNC(=O)c1cccc(-c2cc3c(ncc4cnn(C)c43)[nH]2)c1 [N.1.4]
> 7.00,–,COc1cnc2c(c1)c(-c1cc3c(ncc4cnn(C)c43)[nH]1)cn2C [AC.2.2]
–,5.00 to 6.00,CCc1c(-c2cn(C)c3ccc(OC)cc23)[nH]c2ncc3cnn(C)c3c12 [N.1.35]
–,6.00 to 7.00,COCCCNC(=O)c1cccc(-c2cc3c(ncc4cnn(C)c43)[nH]2)c1 [N.1.7]
–,6.00 to 7.00,"CN(C)CCNC(=O)Cc1cccc(-c2cc3c(ncc4cnn(C)c43)[nH]2)c1 [Example 1, N-(2-(dimethylamino)ethyl)-2-(3-(1-methyl-1,6-dihydropyrazolo[3,4-d]pyrrolo[2,3-b]pyridin-7-yl)phenyl)acetamide]"
–,6.00 to 7.00,CNC(=O)Cc1cccc(-c2cc3c(ncc4cnn(C)c43)[nH]2)c1 [N.1.9]
–,> 7.00,Cn1ncc2cnc3[nH]c(-c4ccc(C(C)(C)O)cc4)c(C#N)c3c21 [D.2.3]
–,< 5.00,CCc1c(-c2cccc3c2ccn3C)[nH]c2ncc3cnn(C)c3c12 [N.1.16]
6.00 to 7.00,–,Cc1nc(-c2cccc(S(C)(=O)=O)c2)c2cnc3[nH]ccc3n12 [AC.1.39]
6.00 to 7.00,–,Cn1ncc2cnc3[nH]c(-c4ccc[nH]4)cc3c21 [T.3.1.2]
–,6.00 to 7.00,CCc1c(-c2ccc(OC)cc2)[nH]c2ncc3cnn(C)c3c12 [N.1.43]
–,5.00 to 6.00,CCOCCCNC(=O)Cn1cccc1-c1cc2c(ncc3cnn(C)c32)[nH]1 [J.2.3.1]
–,6.00 to 7.00,CN(C)CCNC(=O)c1ccc2c(c1)c(-c1cc3c(ncc4cnn(C)c43)[nH]1)cn2C [J.1.8.2]
–,5.00 to 6.00,COc1ccc(-c2cc3c(ncc4nnc(C)n43)[nH]2)cc1 [M.1.19]
–,> 7.00,CNS(=O)(=O)c1cccc(-c2cc3c(ncc4cnn(C)c43)[nH]2)c1 [N.1.33]
–,6.00 to 7.00,Cn1ncc2cnc3[nH]c(-c4cccc(C(=O)N5CCCC5)c4)cc3c21 [N.1.8]
–,6.00 to 7.00,CCc1c(-c2cnn(C)c2)[nH]c2ncc3cnn(C)c3c12 [N.1.44]
–,> 7.00,CCc1c(-c2ccc(C(C)(C)O)cc2)[nH]c2ncc3cnn(C)c3c12 [N.1.20]

pIC50,pIC50 [1],Structure (SMILES)
–,> 7.00,Cn1cc(-c2cc3c(ncc4cnn(C)c43)[nH]2)c2cc(C(=O)NCCO)ccc21 [J.1.8.7]
> 7.00,–,CCc1c(-c2ccc(C(C)(C)O)cc2)[nH]c2ncc3cncn3c12 [S.1.1]
–,6.00 to 7.00,CC(=O)NCCCc1ncc2cnc3[nH]c(-c4cnn(C)c4)cc3n12 [J.2.1.3]
–,6.00 to 7.00,CCCNC(=O)c1cc(-c2nc(C)n3c2cnc2[nH]ccc23)ccc1OC [J.1.7.1]
–,6.00 to 7.00,CCc1c(-c2ccc(N3CCOCC3)cc2)[nH]c2ncc3cnn(C)c3c12 [N.1.31]
–,6.00 to 7.00,Cc1ncc2cnc3[nH]c(-c4cccc(C(=O)NCCN5CCOCC5)c4)cc3n12 [M.1.11]
–,5.00 to 6.00,CCc1c(-c2ccc3c(ccn3C)c2)[nH]c2ncc3cnn(C)c3c12 [N.1.15]
6.00 to 7.00,–,CCCNC(=O)c1cccc(-c2nc(C)n3c2cnc2[nH]ccc23)c1 [AC.1.4]
–,6.00 to 7.00,CCc1c(-c2ccc(OCCN3CCOCC3)cc2)[nH]c2ncc3cnn(C)c3c12 [N.1.45]
–,> 7.00,Cc1ncc2cnc3[nH]c(-c4cccc(S(C)(=O)=O)c4)cc3n12 [M.1.3]
–,> 7.00,Cn1cc(-c2cc3c(ncc4cnn(C)c43)[nH]2)c2ccc(C(=O)NCC(C)(C)CO)cc21 [J.1.4.2]
–,6.00 to 7.00,CC(=O)c1ccc(-c2cc3c(ncc4cnc(C(=O)NCCN(C)C)n43)[nH]2)cc1 [J.1.5.2]
–,> 7.00,"Cn1cc(-c2cc3c(ncc4cnn(C)c43)[nH]2)c2cc(C(=O)O)ccc21 [AN.1, 1-Methyl-3-(1-methyl-1,6-dihydropyrazolo[3,4-d]pyrrolo[2,3-b]pyridin-7-yl)-1H-indole-5-carboxylic acid]"
–,6.00 to 7.00,CC(C)n1cc(-c2cc3c(ncc4cnn(C)c43)[nH]2)c2ccccc21 [N.1.82]
–,6.00 to 7.00,CCc1c(-c2ccc(OCCOC)cc2)[nH]c2ncc3cnn(C)c3c12 [N.1.79]
> 7.00,–,Cn1cc(-c2cc3c(ncc4cnn(C)c43)[nH]2)c2ccc(C(=O)O)cc21 [AN.1.3]
–,> 7.00,COCCNC(=O)Cn1cc(-c2cc3c(ncc4cnn(C)c43)[nH]2)c2cc(OC)ccc21 [N.1.28]
–,6.00 to 7.00,CN(C)CCOc1ccc(-c2cc3c(ncc4cnn(C)c43)[nH]2)cc1 [N.2.3]
